# Data taken from article PMC2710136 (Biochemistry, 2009).
# Ends that are not written are not given here.
# What was measured:
# Settings in all cases: SD
# [1] = molecular target: nSH3_D33A mutant domain of Grb2 (Homo sapiens, UniProt P62993, D33A); experiment: ITC binding of Sos1 peptides to nSH3_D33A mutant domain
# nSH3 domain of Grb2 = nSH3 domain of Grb2 (Homo sapiens, UniProt P62993); experiment: ITC binding of Sos1 peptides to wildtype nSH3 domain of Grb2
# cSH3 domain of Grb2 = cSH3 domain of Grb2 (Homo sapiens, UniProt P62993); experiment: ITC binding of Sos1 peptides to wildtype cSH3 domain of Grb2
# Chain of cSH3 domain of Grb2 (P62993 156-215 limits assumed): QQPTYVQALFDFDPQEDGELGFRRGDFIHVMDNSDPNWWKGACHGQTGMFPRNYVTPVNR
# [2] = molecular target: cSH3_D187A mutant domain of Grb2 (Homo sapiens, UniProt P62993, D187A); experiment: ITC binding of Sos1 peptides to cSH3_D187A mutant domain
# Chain of cSH3_D187A mutant domain of Grb2 (P62993 156-215 D187A limits assumed): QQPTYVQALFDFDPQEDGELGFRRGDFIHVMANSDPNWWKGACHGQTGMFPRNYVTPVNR
# [3] = molecular target: nSH3_E31A mutant domain of Grb2 (Homo sapiens, UniProt P62993, E31A); experiment: ITC binding of Sos1 peptides to nSH3_E31A mutant domain
# Chain of nSH3_E31A mutant domain of Grb2 (P62993 1-58 E31A limits assumed): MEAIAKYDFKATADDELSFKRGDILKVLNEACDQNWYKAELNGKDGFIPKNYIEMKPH
# [4] = molecular target: cSH3_D190A mutant domain of Grb2 (Homo sapiens, UniProt P62993, D190A); experiment: ITC binding of Sos1 peptides to cSH3_D190A mutant domain
# Chain of cSH3_D190A mutant domain of Grb2 (P62993 156-215 D190A limits assumed): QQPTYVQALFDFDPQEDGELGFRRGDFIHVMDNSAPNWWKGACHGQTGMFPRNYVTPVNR
# Chain of nSH3 domain of Grb2 (P62993 1-58 limits assumed): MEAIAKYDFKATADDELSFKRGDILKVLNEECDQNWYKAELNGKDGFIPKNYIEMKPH
# Chain of nSH3_D33A mutant domain of Grb2 (P62993 1-58 D33A limits assumed): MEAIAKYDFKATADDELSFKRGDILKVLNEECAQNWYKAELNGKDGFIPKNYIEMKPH
Sequence,Kd [1] [µM],Kd (nSH3 domain of Grb2) [µM],Kd (cSH3 domain of Grb2) [µM],Kd [2] [µM],Kd [3] [µM],Kd [4] [µM]
PVPPPVPPRARP [S1_R+6A],137 ± 7.6,53 ± 1,331 ± 2,544 ± 102,67 ± 0.3,910 ± 57
IAGPPVPPRQST [Peptide S4],–,82 ± 1,1320 ± 44,–,–,–
DSPPAIPPRQPT [Peptide S2],–,56 ± 5,1400 ± 87,–,–,–
PVPPPVPPRRAP [S1_R+7A],169 ± 4.5,72 ± 1,318 ± 23,2390 ± 73,91 ± 1.2,482 ± 47
PVPPPVPPRAAP [Peptide S1_AA],–,84 ± 1,1570 ± 27,–,–,–
PVPPPVPPAAAP [Peptide S1_AAA],–,2560 ± 335,3090 ± 121,–,–,–
ESPPLLPPREPV [Peptide S3],–,117 ± 2,1720 ± 33,–,–,–
PVPPPVPPARRP [S1_R+5A],–,490 ± 20,962 ± 26,–,–,–
